Where a name gives a salt, the structure may show the parent alone.
Test system: complement level
Assay: Complement Level Reduction Test
Format: in vivo
Conditions: serum of dosed guinea pigs, undiluted serum capillary tube method, compared to undosed controls

O=C(Nc1ccc(-n2nc3ccc4cc(S(=O)(=O)O)cc(O)c4c3n2)c(S(=O)(=O)O)c1)Nc1ccc(-n2nc3ccc4cc(S(=O)(=O)O)cc(O)c4c3n2)c(S(=O)(=O)O)c1 [3,3'-Ureylenebis[6-(9-hydroxy-7-sulfo-2H-naphtho[1,2-d]triazol-2-yl)benzenesulfonic acid] tetrasodium salt]
% Reduction Complement, In Vivo: 42%
